Assay results: paper PMC9705902, “Enzymatic Characterization and Comparison of Two Steroid Hydroxylases CYP154C3-1 and CYP154C3-2 from Streptomyces Species” (Journal of Microbiology and Biotechnology, 2021)

What was measured:
[1] = biological target: T1, CYP154C3-1 (Streptomyces sp., UniProt A0A2H4WK73); test: type I spectral shift titration (A390-A420), tight-binding quadratic fit; parameters: species or system Streptomyces sp. W2061
T1 construct: full-length CDS 1,239 bp (412 residues), N-terminal Trx-His-S-enterokinase fusion from pET32a(+) kept, E. coli C41(DE3), ~65 kDa on SDS-PAGE (~45 kDa theoretical without fusion), heme protein
T1 sequence (A0A2H4WK73 1-414): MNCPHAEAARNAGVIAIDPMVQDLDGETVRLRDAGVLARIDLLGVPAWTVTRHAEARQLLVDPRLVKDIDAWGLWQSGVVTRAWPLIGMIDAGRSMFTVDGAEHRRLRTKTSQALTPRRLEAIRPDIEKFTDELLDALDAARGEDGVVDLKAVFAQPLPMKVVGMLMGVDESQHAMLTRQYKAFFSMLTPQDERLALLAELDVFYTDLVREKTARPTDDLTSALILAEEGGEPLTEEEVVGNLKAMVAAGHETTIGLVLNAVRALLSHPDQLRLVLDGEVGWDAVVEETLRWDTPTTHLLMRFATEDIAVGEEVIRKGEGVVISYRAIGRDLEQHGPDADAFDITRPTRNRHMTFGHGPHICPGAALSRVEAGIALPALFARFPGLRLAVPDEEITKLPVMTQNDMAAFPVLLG
Description: type I spectral shift titration (A390-A420), tight-binding quadratic fit on CYP154C3-1

[2] = biological target: T2, CYP154C3-2 (Streptomyces sp., UniProt A0A7S9IUH5); test: as above
T2 construct: full-length CDS 1,254 bp (417 residues), N-terminal Trx-His-S-enterokinase fusion from pET32a(+) kept, E. coli C41(DE3), ~65 kDa on SDS-PAGE (~45 kDa theoretical without fusion), heme protein
T2 sequence (A0A7S9IUH5 1-417): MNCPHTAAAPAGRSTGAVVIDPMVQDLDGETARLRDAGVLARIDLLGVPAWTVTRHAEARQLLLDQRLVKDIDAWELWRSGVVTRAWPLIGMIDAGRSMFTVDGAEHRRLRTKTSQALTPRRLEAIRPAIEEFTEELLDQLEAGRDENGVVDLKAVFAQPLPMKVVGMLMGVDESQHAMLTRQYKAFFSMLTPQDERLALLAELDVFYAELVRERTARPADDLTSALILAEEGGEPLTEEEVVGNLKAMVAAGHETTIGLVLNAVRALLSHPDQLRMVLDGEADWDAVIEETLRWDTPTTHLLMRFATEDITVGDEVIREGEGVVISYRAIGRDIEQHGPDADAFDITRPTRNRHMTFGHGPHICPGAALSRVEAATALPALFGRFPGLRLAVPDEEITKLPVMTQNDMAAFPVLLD
Description: type I spectral shift titration (A390-A420), tight-binding quadratic fit on CYP154C3-2

Question: What does the source list for `C[C@]12CCC(=O)C=C1CC[C@@H]1[C@@H]2C(=O)C[C@]2(C)C(=O)CC[C@@H]12` [compound 1, Adrenosterone]?
Answer: Kd [1]: 0.318 ± 0.026 µM; Kd [2]: 0.443 ± 0.035 µM

Question: What does the source list for `C[C@]12CCC(=O)C=C1CC[C@@H]1[C@@H]2CC[C@]2(C)C(=O)CC[C@@H]12` [compound 2, Androstenedione]?
Answer: Kd [1]: 0.351 ± 0.033 µM; Kd [2]: 0.475 ± 0.054 µM

Question: With `C[C@]12C[C@H](O)[C@H]3[C@@H](CCC4=CC(=O)CC[C@@]43C)[C@@H]1CC[C@@H]2C(=O)CO` [compound 3, Corticosterone] as the molecule, how does the Kd [1] read?
Answer: The Kd was 14.1 ± 2.57 µM.

Question: What about the Kd [2] of the same molecule?
Answer: Its Kd is 44.5 ± 3.97 µM.

Question: How did the Kd [1] turn out when `C[C@]12CC[C@H]3[C@@H](CCC4=CC(=O)CC[C@@H]43)[C@@H]1CC[C@@H]2O` [compound 6, Nandrolone] was run?
Answer: The Kd was 13.5 ± 2.62 µM.

Question: What about the Kd [2] of the same molecule?
Answer: The Kd was 6.58 ± 0.84 µM.

Question: With `CC(=O)[C@H]1CC[C@H]2[C@@H]3CCC4=CC(=O)CC[C@]4(C)[C@H]3CC[C@]12C` [compound 9, Progesterone] as the molecule, how does the Kd [2] read?
Answer: Its Kd is 0.409 ± 0.037 µM.
